Columns and labels:
[1] = system: non-sedated, non-naïve cynomolgus monkeys; test: Intravenous infusion in non-sedated, telemeterized non-human primates: blood pressure, heart rate, ECG (Example 2); format: in vivo
Procedure: Peptides were synthesized as in Example 1. […] Two non-naïve, telemeterized, male non-human primates (NHP “a” and “b”) were used for the test article(s) dosing regimen. […] Following a stabilized baseline period of approximately 30 minutes, one of the test article(s) was administered as an intravenous infusion via a femoral vein vascular access port (VAP) using a Pegasus PCA infusion pump for a period of 30 or 60 minutes. A minimum period of 30 minutes was allotted for the hemodynamic parameters to return to baseline prior to the next test article infusion dose. The process was repeated for each of the stated test articles. The same procedure was followed for the 1 hour infusion with 1 hour allotted for parameters to return to base line.
The non-human primates were previously surgically prepared with telemetry transducers, type TL11M2-D70-PCT (Data Sciences International). The acquisition and analysis was done using a Ponemah (Version 4.8 or higher) data acquisition and analysis system installed on the hard drive of a computer. The computer was equipped with disk drive for file back up on readable write-once only optical media (CD-R or DVD-R).
Prior to the first dose administration, baseline data was acquired. For each subsequent dose, data was collected for approximately 30 min postdose. Prior to the next dose, the hemodynamic parameters were allowed to return to a stable baseline±10%.
Systolic blood pressure (SYS or SBP), diastolic blood pressure (DBP), mean arterial pressure (MAP), heart rate (HR), and all lead II ECG variables were recorded. The telemetry data files were transferred to an Excel (MicroSoft® Version 2003) spreadsheet. The following variables from the lead II ECG were measured: PR interval, QRS duration, QT interval, RR interval, and QTcF interval (calculated as
A visual inspection of the entire collected ECG waveform for disturbances in rhythm and waveform morphology was performed. The data for selected time points were analyzed and assessed on completion of data acquisition and were the average of at least 30 beats (ABP and ECG) of data at the selected analysis time, when possible. The time points for both hemodynamic and ECG data analysis were an initial 30 min baseline prior to the first dose, at a 10 min during each infusion postdose interval relative to end of each infusion, and time points prior to the next test article infusion for each test compound.
Non-human primates were selected because they have the same RAMP 1-CGRP receptor complex as humans.

rats = conditions: 19 ng/kg/min; cited from earlier work
[2] = NHP a, dose day 2, during 30 minute infusions of 0.024 ug/kg/min
[3] = NHP a, dose day 3, during 30 minute infusions of 0.024 ug/kg/min
[4] = NHP a, dose day 3, during 1 hour infusion of 0.024 ug/kg/min
[5] = NHP b, dose day 2, during 30 minute infusions of 0.024 ug/kg/min
[6] = NHP b, dose day 3, during 30 minute infusions of 0.024 ug/kg/min
[7] = NHP b, dose day 3, during 1 hour infusion of 0.024 ug/kg/min
[8] = average of a 2, b 2, a 3, b 3, during 30 minute infusions of 0.024 ug/kg/min
[9] = average of a3, b3, during 1 hour infusion of 0.024 ug/kg/min

**Q.** Which “course of heart rate during 1 hour infusion” value ([1]; 1 hour infusion of 0.024 ug/kg/min, after 30 minutes) does the source give for “ACNTATCVTHRLAGLLSRSGGMVKSNFVPTNVGSKAF-NH2 [βCGRP]” here?
**A.** Heart rate continues to drop after 30 minutes

**Q.** What about the “Percent change in HR, a 2” value [1, 2] of the same substance?
**A.** 1.2%

**Q.** And the “Percent change in mean BP, a 2” value [1, 2]?
**A.** −8.8%

**Q.** What about the “Percent change in systolic BP, a 2” value [1, 2] of the same substance?
**A.** −7.4%

**Q.** What about the “Percent change in HR, a 3” value [1, 3] of the same substance?
**A.** −13.6%

**Q.** And the “Percent change in mean BP, a 3” value [1, 3]?
**A.** −16.8%

**Q.** What about the “Percent change in systolic BP, a 3” value [1, 3] of the same substance?
**A.** −12.2%

**Q.** What about the “Percent change in HR at 30 minutes, a3” value [1, 4] of the same substance?
**A.** −13.6%

**Q.** What about the “Percent change in HR at 60 minutes, a3 1 hr” value [1, 4] of the same substance?
**A.** −10.7%

**Q.** What about the “Percent change in mean systolic BP at 30 minutes, a3” value [1, 4] of the same substance?
**A.** −16.8%

**Q.** What about the “Percent change in mean systolic BP at 60 minutes, a3 1 hr” value [1, 4] of the same substance?
**A.** 0.0%

**Q.** And the “Percent change in systolic BP at 30 minutes, a3” value [1, 4]?
**A.** −12.2%

**Q.** What about the “Percent change in systolic BP at 60 minutes, a3 1 hr” value [1, 4] of the same substance?
**A.** −0.8%

**Q.** What about the “Percent change in HR, b 2” value [1, 5] of the same substance?
**A.** −21.3%

**Q.** What about the “Percent change in mean BP, b 2” value [1, 5] of the same substance?
**A.** −6.7%

**Q.** And the “Percent change in systolic BP, b 2” value [1, 5]?
**A.** −8.1%

**Q.** And the “Percent change in HR, b 3” value [1, 6]?
**A.** −22.0%

**Q.** What about the “Percent change in mean BP, b 3” value [1, 6] of the same substance?
**A.** −23.4%

**Q.** What about the “Percent change in systolic BP, b 3” value [1, 6] of the same substance?
**A.** −23.2%

**Q.** What about the “Percent change in HR at 30 minutes, b3” value [1, 7] of the same substance?
**A.** −22.0%

**Q.** And the “Percent change in HR at 60 minutes, b3 1 hr” value [1, 7]?
**A.** −18.1%

**Q.** And the “Percent change in mean systolic BP at 30 minutes, b3” value [1, 7]?
**A.** −23.4%

**Q.** And the “Percent change in mean systolic BP at 60 minutes, b3 1 hr” value [1, 7]?
**A.** −10.7%

**Q.** What about the “Percent change in systolic BP at 30 minutes, b3” value [1, 7] of the same substance?
**A.** −23.2%

**Q.** What about the “Percent change in systolic BP at 60 minutes, b3 1 hr” value [1, 7] of the same substance?
**A.** −10.1%

**Q.** And the “Percent change in mean HR, a 2” value ([1]; Table 14, NHP a, dose day 2, during 30 minute infusions of 0.024 ug/kg/min)?
**A.** 1.2%

**Q.** What about the “Percent change in mean HR, a 3” value ([1]; Table 14, NHP a, dose day 3, during 30 minute infusions of 0.024 ug/kg/min) of the same substance?
**A.** −13.6%

**Q.** And the “Percent change in mean HR, b 2” value ([1]; Table 14, NHP b, dose day 2, during 30 minute infusions of 0.024 ug/kg/min)?
**A.** −21.3%

**Q.** And the “Percent change in mean HR, b 3” value ([1]; Table 14, NHP b, dose day 3, during 30 minute infusions of 0.024 ug/kg/min)?
**A.** −22.0%

**Q.** And the “Percent change in mean HR, HR” value ([1]; Table 14, average of a 2, b 2, a 3, b 3, during 30 minute infusions of 0.024 ug/kg/min)?
**A.** −13.9%

**Q.** What about the “Percent change in mean HR at 30 minutes, a3” value ([1]; Table 24, NHP a, dose day 3, during 1 hour infusion of 0.024 ug/kg/min) of the same substance?
**A.** −13.6%

**Q.** What about the “Percent change in mean HR at 30 minutes, b3” value ([1]; Table 24, NHP b, dose day 3, during 1 hour infusion of 0.024 ug/kg/min) of the same substance?
**A.** −22.0%

**Q.** What about the “Percent change in mean HR at 30 minutes, HR T30” value ([1]; Table 24, average of a3, b3, during 1 hour infusion of 0.024 ug/kg/min) of the same substance?
**A.** −17.8%

**Q.** What about the “Percent change in mean HR at 60 minutes, a3 1 hr” value ([1]; Table 25, NHP a, dose day 3, during 1 hour infusion of 0.024 ug/kg/min) of the same substance?
**A.** −10.7%

**Q.** What about the “Percent change in mean HR at 60 minutes, b3 1 hr” value ([1]; Table 25, NHP b, dose day 3, during 1 hour infusion of 0.024 ug/kg/min) of the same substance?
**A.** −18.1%

**Q.** And the “Percent change in mean HR at 60 minutes, HR T60” value ([1]; Table 25, average of a3, b3, during 1 hour infusion of 0.024 ug/kg/min)?
**A.** −14.4%

**Q.** And the “Percent change in HR, HR” value [1, 8]?
**A.** −13.9%

**Q.** And the “Percent change in mean BP, BP” value [1, 8]?
**A.** −13.9%

**Q.** What about the “Percent change in systolic BP, BP” value [1, 8] of the same substance?
**A.** −12.7%

**Q.** What about the “Percent change in HR at 30 minutes, HR T30” value [1, 9] of the same substance?
**A.** −17.8%

**Q.** What about the “Percent change in HR at 60 minutes, HR T60” value [1, 9] of the same substance?
**A.** −14.4%

**Q.** And the “Percent change in mean systolic BP at 30 minutes, BP T30” value [1, 9]?
**A.** −20.1%

**Q.** And the “Percent change in mean systolic BP at 60 minutes, BP T60” value [1, 9]?
**A.** −5.4%

**Q.** And the “Percent change in systolic BP at 30 minutes, T30” value [1, 9]?
**A.** −17.7%

**Q.** And the “Percent change in systolic BP at 60 minutes, T60” value [1, 9]?
**A.** −5.4%

**Q.** What about the “effect on heart rate” value ([1]; non-sedated cynomolgus monkeys, IV infusion) of the same substance?
**A.** maintenance of pre-administration heart rate, and in some cases, reduction in heart rate

**Q.** And the “heart rate and blood pressure effect” value (rats)?
**A.** tachycardia with no significant hypotension

Reference: US20110150980A1, “CGRP ANALOG” (VasoGenix Pharmaceuticals, Inc., priority 2009, published 2011)
